Here are results for seven molecules from US8907131B2, “Compounds for treating proliferative disorders” (Synta Pharmaceuticals Corp., priority 2007, dated 2014).

For the first assay, the system named is Hsp70. As to the kind of experiment: Hsp70 ELISA assay: Hsp70 induction in Ramos B lymphoma cells. Type of assay: cell-based. To be noted: Homo sapiens; Ramos B lymphoma cells treated at 10, 50, 250 and 1250 nM for 5 h; whole culture lysate, Hsp70 ELISA; read-out: ED50 (Hsp70 induction). The protocol: Hsp70 induction was measured in Ramos B lymphoma cells. Cells were seeded at 80 μl/well in 96-plate and treated with compounds at 10, 50, 250 and 1250 nM for 5 h. […] Cells were lysed in culture medium with ¼-vol of alkaline-detergent buffer composed of 200 mM bicarbonate, pH 9.4, and 20% Triton X100 to include Hsp70 that would be released into culture supernatant. […] Fifty microliter of the whole culture lysate was transferred to Hsp70 ELISA assay well (Assay Design) including 150 μl of immunoenhancer solution (Toyobo, Japan). Then the assay steps were carried out according to the protocol of the manufacturer. Compound A was included in each cell culture plate as a reference to normalize the interexperimental variance.
On to `CN(NC(=O)CC(=O)NN(C)C(=[Se])c1ccccc1)C(=[Se])c1ccccc1` [Compound 1, N′1,N′3-dimethyl-N′1,N′3-di(phenylcarbonoselenoyl)malonohydrazide], for which the EC50 is 0.07 µM.

As for `CO/N=C(\c1ccccc1)N(C)NC(=O)CC(=O)NN(C)/C(=N/OC)c1ccccc1` [Compound 10, N′1,N′3-bis((E)-(methoxyimino)(phenyl)methyl)-N′1,N′3-dimethylmalonohydrazide], the EC50 was greater than 1.25 µM.

In the case of `CN(NC(=O)CC(=O)NN(C)/C(=N/O)c1ccccc1)/C(=N/O)c1ccccc1` [Compound 11, N′1,N′3-bis((E)-(hydroxyimino)(phenyl)methyl)-N′1,N′3-dimethylmalonohydrazide], the EC50 was greater than 1.25 µM.

`COc1ccc(OC)c(C(=[Se])N(C)NC(=O)CC(=O)NN(C)C(=[Se])c2cc(OC)ccc2OC)c1` [Compound 12, N′^1,N′3-bis(2,5-dimethoxyphenylcarbonoselenoyl)-N′^1,N′^3-dimethylmalonohydrazide]: the EC50 was greater than 1.25 µM.

As for `CNN=C(C(=O)NN(C)C(=[Se])c1ccccc1)C(=O)NN(C)C(=[Se])c1ccccc1` [Compound 13, N′1,N′3-dimethyl-2-(2-methylhydrazono)-N′1,N′3-di(phenylcarbonoselenoyl)malonohydrazide], the EC50 is greater than 1.25 µM.

With `CN(NC(=O)CS(=O)(=O)NN(C)C(=[Se])c1ccccc1)C(=[Se])c1ccccc1` [Compound 14, N′-methyl-2-(2-methyl-2-(phenylcarbonoselenoyl)hydrazinyl)-2-oxo-N′-(phenylcarbonoselenoyl)ethanesulfonohydrazide], the EC50 is greater than 1.25 µM.

The assay is the same for the next values; noted with them: Ramos B lymphoma cells; titration used to set cell density.
For `CN(NC(=O)CC(=O)NN(C)C(=S)c1ccccc1)C(=S)c1ccccc1` [Compound A, reference compound], the Hsp70 induction result was “Hsp70 induction in linear manner with concentration”.
